Results: ChEMBL document CHEMBL1781956, “Design, synthesis and insulin-sensitizing activity of indomethacin and diclofenac derivatives” (Bioorg Med Chem Lett, 2009)
Calls of active or inactive are those of the source. The rule behind the calls is not given here.

Key:
Assay type in all cases: functional
[1] = system: 3T3-L1; test: Insulin sensitizing activity in mouse 3T3L1 cells assessed as triglyceride accumulation at 1 uM by insulin-regulated cell differentiation assay relative to rosiglitazone
[2] = system: 3T3-L1; test: Insulin sensitizing activity in mouse 3T3L1 cells assessed as triglyceride accumulation by insulin-regulated cell differentiation assay
[3] = target: T1, Peroxisome proliferator-activated receptor gamma (Homo sapiens, UniProt P37231); test: Agonist activity at human PPARgamma in human U2OS cells by cell based transactivation assay
T1 sequence (P37231 whole entry): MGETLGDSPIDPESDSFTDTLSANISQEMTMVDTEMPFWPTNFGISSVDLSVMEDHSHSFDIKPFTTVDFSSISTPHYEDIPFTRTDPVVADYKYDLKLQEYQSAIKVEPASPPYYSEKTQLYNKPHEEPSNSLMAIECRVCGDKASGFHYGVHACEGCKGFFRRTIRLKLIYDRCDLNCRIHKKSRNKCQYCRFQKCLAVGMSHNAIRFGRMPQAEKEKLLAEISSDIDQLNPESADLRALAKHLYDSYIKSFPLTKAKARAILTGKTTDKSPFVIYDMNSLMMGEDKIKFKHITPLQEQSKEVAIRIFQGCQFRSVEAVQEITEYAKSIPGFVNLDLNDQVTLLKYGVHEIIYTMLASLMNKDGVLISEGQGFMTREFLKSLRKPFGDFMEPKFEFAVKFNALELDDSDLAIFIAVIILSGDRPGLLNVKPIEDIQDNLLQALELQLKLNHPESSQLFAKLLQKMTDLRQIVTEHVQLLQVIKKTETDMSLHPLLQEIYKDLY

[4] = target: T2, Peroxisome proliferator-activated receptor gamma (Homo sapiens) (UniProt P37231); test: Agonist activity at human PPARgamma in human U2OS cells by cell based transactivation assay relative to rosiglitazone
T2 sequence (whole entry): T1 sequence (P37231 whole entry)

EC50 [3]	Emax [4]	SMILES	Activity [1]	EC30 [2]	EC50 ([3]; u2os)
		COc1cccc(-c2nc(CCOc3ccc4c(c3)c(CC(=O)O)c(C)n4C(=O)c3ccc(Cl)cc3)c(C)o2)c1	76%	3.75 ×10⁻⁷ M	
		CN(CCOc1ccc(CC2SC(=O)NC2=O)cc1)c1ccccn1 (centres undefined) [ROSIGLITAZONE]	100%	1.05 ×10⁻⁷ M	
20 nM	141%	COC(=O)Cc1c(C)n(C(=O)c2ccc(Cl)cc2)c2ccc(OCCc3nc(-c4ccc(-c5ccccc5)cc4)oc3C)cc12	138%	1.23 ×10⁻⁸ M	
		Cc1c(CC(=O)O)c2cc(OCCN3COc4ccccc4C3=O)ccc2n1C(=O)c1ccc(Cl)cc1	41%		
		CCc1ccc(CCOc2ccc3c(c2)c(CC(=O)O)c(C)n3C(=O)c2ccc(Cl)cc2)nc1	42%	5.89 ×10⁻⁶ M	
		COC(=O)Cc1c(C)n(C(=O)c2ccc(Cl)cc2)c2ccc(OCCC/C=C(\C)CC/C=C(\C)CCC=C(C)C)cc12	81%	2.88 ×10⁻⁷ M	
		COC(=O)Cc1c(C)n(C(=O)c2ccc(Cl)cc2)c2ccc(OCCN3CCOCC3)cc12	42%		
		COC(=O)Cc1c(C)n(C(=O)c2ccc(Cl)cc2)c2ccc(OCCc3nc(-c4ccc(Cl)cc4)oc3C)cc12	57%	2 ×10⁻⁶ M	
		COC(=O)Cc1c(C)n(C(=O)c2ccc(Cl)cc2)c2ccc(OCCN3COc4ccccc4C3=O)cc12	47%		
620 nM	74%	COC(=O)Cc1c(C)n(C(=O)c2ccc(Cl)cc2)c2ccc(OCCc3nc(-c4ccccc4)oc3C)cc12	80%	2.75 ×10⁻⁷ M	
	79%	Cc1oc(-c2ccccc2)nc1CCOc1ccc2c(c1)c(CC(=O)O)c(C)n2C(=O)c1ccc(Cl)cc1	36%	6.17 ×10⁻⁶ M	
		Cc1c(CC(=O)O)c2cc(OCCN3CCOCC3)ccc2n1C(=O)c1ccc(Cl)cc1	36%		
		COC(=O)Cc1c(C)n(C(=O)c2ccc(Cl)cc2)c2ccc(OCCN3CCCCC3)cc12	33%		
		CCc1ccc(CCOc2ccc3c(c2)c(CC(=O)OC)c(C)n3C(=O)c2ccc(Cl)cc2)nc1	50%	1.7 ×10⁻⁶ M	
		Cc1c(CC(=O)O)c2cc(OCCN3CCCCC3)ccc2n1C(=O)c1ccc(Cl)cc1	30%		
40 nM	134%	Cc1oc(-c2ccc(-c3ccccc3)cc2)nc1CCOc1ccc2c(c1)c(CC(=O)O)c(C)n2C(=O)c1ccc(Cl)cc1	129%	3.31 ×10⁻⁸ M	
	35%	O=C(O)Cc1ccc(OCc2ccccc2)cc1Nc1c(Cl)cccc1Cl	98%	2.51 ×10⁻⁷ M	
		CC(C)=CCC/C(C)=C/CC/C(C)=C/CCCOc1ccc2c(c1)c(CC(=O)O)c(C)n2C(=O)c1ccc(Cl)cc1	74%	6.92 ×10⁻⁷ M	
		COC(=O)Cc1c(C)n(C(=O)c2ccc(Cl)cc2)c2ccc(OCCc3nc(-c4cccc(OC)c4)oc3C)cc12	85%	3.16 ×10⁻⁷ M	
		Cc1oc(-c2ccc(Cl)cc2)nc1CCOc1ccc2c(c1)c(CC(=O)O)c(C)n2C(=O)c1ccc(Cl)cc1	38%		

SMILES	EC50 [3]	Emax [4]	Activity [1]	EC30 [2]	EC50 ([3]; u2os)
COC(=O)Cc1c(C)n(C(=O)c2ccc(Cl)cc2)c2ccc(OCc3ccccc3)cc12		inactive	134%	6.56 ×10⁻⁹ M	Not Active
Cc1c(CC(=O)O)c2cc(OCc3ccccc3)ccc2n1C(=O)c1ccc(Cl)cc1		inactive	126%	9.51 ×10⁻⁹ M	Not Active
